Measured values as given in ChEMBL document CHEMBL3886227, “Multiheteroaryl compounds as inhibitors of H-PGDS and their use for treating prostaglandin D2 mediated diseases” (2015).

Target: Hematopoietic prostaglandin D synthase (Homo sapiens, UniProt O60760)
Assay: Fluorescence Polarization Binding Assay (FPBA): This assay essentially is available from Cayman Chemical Company as Catalog item #600007. The test data reported for the aforementioned Examples (H-PGDS FPBA IC50) were generated using a 96-well, instead of the 384-well, format.Detection analyte and H-PGDS-MBP fusion enzyme were incubated in the presence of reduced glutathione (5 mM) for 60-90 minutes at room temperature and FP was measured using a TECAN SAFIRE 2 plate reader equipped with absorbance, fluorescence, fluorescence polarization and FRET capabilities. Assays were performed in 96-well microtiter plates in 100 µL of total sample volume. Excitation and emission wavelengths appropriate for the employed detection analyte were used.

Sequence of Hematopoietic prostaglandin D synthase (O60760 whole entry, the tested form may be a part): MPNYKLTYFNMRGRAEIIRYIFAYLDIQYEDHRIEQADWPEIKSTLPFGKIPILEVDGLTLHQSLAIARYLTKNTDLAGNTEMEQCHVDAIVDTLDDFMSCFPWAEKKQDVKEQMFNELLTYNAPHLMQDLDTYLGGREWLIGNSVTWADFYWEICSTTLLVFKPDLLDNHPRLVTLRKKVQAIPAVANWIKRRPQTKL

IC50: 2 µM
SMILES: COC(=O)c1cc(-c2cnc(Oc3ccccc3)nc2)[nH]n1
